Data from patent publication US10206394B2, “Herbicidal compounds” (Syngenta Participations AG, priority 2014, dated 2019).
Where two headings read alike, the source gives them in different places.

Key:
Assay in all cases: Glasshouse assay for herbicidal activity (pre- and post-emergence), percentage phytotoxicity
Assay type in all cases: in vivo
Avena fatua (AVEFA) = conditions: Avena fatua
Method in brief: (§1)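 Potted test plants in standard soil received the compound pre-emergence (day 1) or post-emergence (about day 12). Evaluation: visual damage score from 0% (none) to 100% (total), 15 days after application post-emergence, 20 days pre-emergence.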

[1] = tested on: Alopecurus myosuroides (ALOMY); conditions: Alopecurus myosuroides
Method in brief: as §1

Lolium perenne (LOLPE) = conditions: Lolium perenne
Method in brief: as §1

[2] = tested on: Echinochloa crus-galli (ECHCG); conditions: Echinochloa crus-galli
Method in brief: as §1

[3] = post-emergence, 360 h, Rate 250 g/ha, post-emergence, visual assessment 15 DAA, 100%=total damage, 0%=no damage, read-out: Post-emergence herbicidal activity (percentage phytotoxicity) AVEFA POST
[4] = pre-emergence, 480 h, Rate 250 g/ha, pre-emergence, visual assessment 20 DAA, 100%=total damage, 0%=no damage, read-out: Pre-emergence herbicidal activity (percentage phytotoxicity) AVEFA PRE
[5] = post-emergence, 360 h, Rate 250 g/ha, post-emergence, visual assessment 15 DAA, 100%=total damage, 0%=no damage, read-out: Post-emergence herbicidal activity (percentage phytotoxicity) ALOMY POST
[6] = pre-emergence, 480 h, Rate 250 g/ha, pre-emergence, visual assessment 20 DAA, 100%=total damage, 0%=no damage, read-out: Pre-emergence herbicidal activity (percentage phytotoxicity) ALOMY PRE
[7] = post-emergence, 360 h, Rate 250 g/ha, post-emergence, visual assessment 15 DAA, 100%=total damage, 0%=no damage, read-out: Post-emergence herbicidal activity (percentage phytotoxicity) LOLPE POST
[8] = pre-emergence, 480 h, Rate 250 g/ha, pre-emergence, visual assessment 20 DAA, 100%=total damage, 0%=no damage, read-out: Pre-emergence herbicidal activity (percentage phytotoxicity) LOLPE PRE
[9] = post-emergence, 360 h, Rate 250 g/ha, post-emergence, visual assessment 15 DAA, 100%=total damage, 0%=no damage, read-out: Post-emergence herbicidal activity (percentage phytotoxicity) ECHCG POST
[10] = pre-emergence, 480 h, Rate 250 g/ha, pre-emergence, visual assessment 20 DAA, 100%=total damage, 0%=no damage, read-out: Pre-emergence herbicidal activity (percentage phytotoxicity) ECHCG PRE
[11] = post-emergence, 360 h, POST-emergence, rate 250 g/ha, visual score 15 DAA (100%=total damage, 0%=no damage), read-out: Post-emergence herbicidal activity (percentage phytotoxicity) AVEFA POST
[12] = pre-emergence, 480 h, PRE-emergence, rate 250 g/ha, visual score 20 DAA (100%=total damage, 0%=no damage), read-out: Pre-emergence herbicidal activity (percentage phytotoxicity) AVEFA PRE
[13] = post-emergence, 360 h, POST-emergence, rate 250 g/ha, visual score 15 DAA (100%=total damage, 0%=no damage), read-out: Post-emergence herbicidal activity (percentage phytotoxicity) ALOMY POST
[14] = pre-emergence, 480 h, PRE-emergence, rate 250 g/ha, visual score 20 DAA (100%=total damage, 0%=no damage), read-out: Pre-emergence herbicidal activity (percentage phytotoxicity) ALOMY PRE
[15] = post-emergence, 360 h, POST-emergence, rate 250 g/ha, visual score 15 DAA (100%=total damage, 0%=no damage), read-out: Post-emergence herbicidal activity (percentage phytotoxicity) LOLPE POST
[16] = pre-emergence, 480 h, PRE-emergence, rate 250 g/ha, visual score 20 DAA (100%=total damage, 0%=no damage), read-out: Pre-emergence herbicidal activity (percentage phytotoxicity) LOLPE PRE
[17] = post-emergence, 360 h, POST-emergence, rate 250 g/ha, visual score 15 DAA (100%=total damage, 0%=no damage), read-out: Post-emergence herbicidal activity (percentage phytotoxicity) ECHCG POST
[18] = pre-emergence, 480 h, PRE-emergence, rate 250 g/ha, visual score 20 DAA (100%=total damage, 0%=no damage), read-out: Pre-emergence herbicidal activity (percentage phytotoxicity) ECHCG PRE

| Compound | pest or weed control at 250 g/ha (Avena fatua (AVEFA); [3]) [%] | pest or weed control at 250 g/ha (Avena fatua (AVEFA); [4]) [%] | pest or weed control at 250 g/ha [1, 5] [%] | pest or weed control at 250 g/ha [1, 6] [%] | pest or weed control at 250 g/ha (Lolium perenne (LOLPE); [7]) [%] | pest or weed control at 250 g/ha (Lolium perenne (LOLPE); [8]) [%] | pest or weed control at 250 g/ha [2, 9] [%] | pest or weed control at 250 g/ha [2, 10] [%] | pest or weed control at 250 g/ha (Avena fatua (AVEFA); [11]) [%] | pest or weed control at 250 g/ha (Avena fatua (AVEFA); [12]) [%] | pest or weed control at 250 g/ha [1, 13] [%] | pest or weed control at 250 g/ha [1, 14] [%] | pest or weed control at 250 g/ha (Lolium perenne (LOLPE); [15]) [%] | pest or weed control at 250 g/ha (Lolium perenne (LOLPE); [16]) [%] | pest or weed control at 250 g/ha [2, 17] [%] | pest or weed control at 250 g/ha [2, 18] [%] | other results |
| --- | --- | --- | --- | --- | --- | --- | --- | --- | --- | --- | --- | --- | --- | --- | --- | --- | --- |
| CCOCOC1=C(c2c(C)cc(-c3ncc(Cl)cn3)cc2C)C(=O)C(CC(=O)NC(C)(C)C)C1 (stereo not drawn) [Compound P6] | 90 | 100 | 100 | 100 | 100 | 100 | 100 | 100 |  |  |  |  |  |  |  |  |  |
| Cc1cc(-c2ncc(F)cn2)cc(C)c1C1C(=O)CC(CC(=O)NC2CC2F)C1=O (stereo not drawn) [Compound B293] |  |  |  |  |  |  |  |  | 100 | 60 | 100 | 90 | 90 | 90 | 100 | 90 |  |
| Cc1cc(-c2ncc(F)cn2)cc(C)c1C1C(=O)CC(CC(=O)NCc2ccc(C(F)(F)F)nc2)C1=O (stereo not drawn) [Compound A136] |  |  |  |  |  |  |  |  |  |  |  |  |  |  |  |  | pest or weed control at 250 g/ha (Avena fatua (AVEFA); post-emergence, 360 h, Rate 250 g/ha, post-emergence, assessed visually 15 DAA, 100%=total damage, 0%=no damage, read-out: Post-emergence herbicidal activity (percentage phytotoxicity) AVEFA POST): 100%; pest or weed control at 250 g/ha (Avena fatua (AVEFA); pre-emergence, 480 h, Rate 250 g/ha, pre-emergence, assessed visually 20 DAA, 100%=total damage, 0%=no damage, read-out: Pre-emergence herbicidal activity (percentage phytotoxicity) AVEFA PRE): 90%; pest or weed control at 250 g/ha ([1]; post-emergence, 360 h, Rate 250 g/ha, post-emergence, assessed visually 15 DAA, 100%=total damage, 0%=no damage, read-out: Post-emergence herbicidal activity (percentage phytotoxicity) ALOMY POST): 100%; pest or weed control at 250 g/ha ([1]; pre-emergence, 480 h, Rate 250 g/ha, pre-emergence, assessed visually 20 DAA, 100%=total damage, 0%=no damage, read-out: Pre-emergence herbicidal activity (percentage phytotoxicity) ALOMY PRE): 80%; pest or weed control at 250 g/ha (Lolium perenne (LOLPE); post-emergence, 360 h, Rate 250 g/ha, post-emergence, assessed visually 15 DAA, 100%=total damage, 0%=no damage, read-out: Post-emergence herbicidal activity (percentage phytotoxicity) LOLPE POST): 90%; pest or weed control at 250 g/ha (Lolium perenne (LOLPE); pre-emergence, 480 h, Rate 250 g/ha, pre-emergence, assessed visually 20 DAA, 100%=total damage, 0%=no damage, read-out: Pre-emergence herbicidal activity (percentage phytotoxicity) LOLPE PRE): 80%; pest or weed control at 250 g/ha ([2]; post-emergence, 360 h, Rate 250 g/ha, post-emergence, assessed visually 15 DAA, 100%=total damage, 0%=no damage, read-out: Post-emergence herbicidal activity (percentage phytotoxicity) ECHCG POST): 100%; pest or weed control at 250 g/ha ([2]; pre-emergence, 480 h, Rate 250 g/ha, pre-emergence, assessed visually 20 DAA, 100%=total damage, 0%=no damage, read-out: Pre-emergence herbicidal activity (percentage phytotoxicity) ECHCG PRE): 90% |
| Cc1cc(C)c(C2=C(OC(=O)C(C)(C)C)CC(CC(=O)NC3(C)COC3)C2=O)c(C)c1 (stereo not drawn) [Compound P15] | 80 | 40 | 90 | 70 | 80 | 80 | 80 | 100 |  |  |  |  |  |  |  |  |  |
| CCc1cc(C)cc(C)c1C1C(=O)CC(CC(=O)NCc2ccc(C#N)cc2)C1=O (stereo not drawn) [Compound B254] |  |  |  |  |  |  |  |  | 100 | 90 | 100 | 90 | 100 | 90 | 100 | 100 |  |
| Cc1cc(OCC(F)(F)F)cc(C)c1C1C(=O)CC(CC(N)=O)C1=O (stereo not drawn) [Compound B154] |  |  |  |  |  |  |  |  |  |  |  |  |  |  |  |  | pest or weed control at 250 g/ha (Avena fatua (AVEFA); post-emergence, 360 h, 250 g/ha, post-emergence, 15 DAA, visual assessment (100%=total damage, 0%=no damage), read-out: Post-emergence herbicidal activity (percentage phytotoxicity) AVEFA POST): 70%; pest or weed control at 250 g/ha (Avena fatua (AVEFA); pre-emergence, 480 h, 250 g/ha, pre-emergence, 20 DAA, visual assessment (100%=total damage, 0%=no damage), read-out: Pre-emergence herbicidal activity (percentage phytotoxicity) AVEFA PRE): 50%; pest or weed control at 250 g/ha ([1]; post-emergence, 360 h, 250 g/ha, post-emergence, 15 DAA, visual assessment (100%=total damage, 0%=no damage), read-out: Post-emergence herbicidal activity (percentage phytotoxicity) ALOMY POST): 70%; pest or weed control at 250 g/ha ([1]; pre-emergence, 480 h, 250 g/ha, pre-emergence, 20 DAA, visual assessment (100%=total damage, 0%=no damage), read-out: Pre-emergence herbicidal activity (percentage phytotoxicity) ALOMY PRE): 90%; pest or weed control at 250 g/ha (Lolium perenne (LOLPE); post-emergence, 360 h, 250 g/ha, post-emergence, 15 DAA, visual assessment (100%=total damage, 0%=no damage), read-out: Post-emergence herbicidal activity (percentage phytotoxicity) LOLPE POST): 70%; pest or weed control at 250 g/ha (Lolium perenne (LOLPE); pre-emergence, 480 h, 250 g/ha, pre-emergence, 20 DAA, visual assessment (100%=total damage, 0%=no damage), read-out: Pre-emergence herbicidal activity (percentage phytotoxicity) LOLPE PRE): 70%; pest or weed control at 250 g/ha ([2]; post-emergence, 360 h, 250 g/ha, post-emergence, 15 DAA, visual assessment (100%=total damage, 0%=no damage), read-out: Post-emergence herbicidal activity (percentage phytotoxicity) ECHCG POST): 90%; pest or weed control at 250 g/ha ([2]; pre-emergence, 480 h, 250 g/ha, pre-emergence, 20 DAA, visual assessment (100%=total damage, 0%=no damage), read-out: Pre-emergence herbicidal activity (percentage phytotoxicity) ECHCG PRE): 80% |
